Results as given in article PMC6150271, “‘Click Chemistry’ Synthesis of Novel Natural Product-Like Caged Xanthones Bearing a 1,2,3-Triazole Moiety with Improved Druglike Properties as Orally Active Antitumor Agents” (Molecules : A Journal of Synthetic Chemistry and Natural …, 2017).
Values after ≈ are worked out from the molar mass of the structure shown. Like-named read-outs stand apart in the source and are kept apart here. Marks after values point to notes of the source that are not given here.

What was measured:
[1] = tested on: lung cancer A549 transplanted mouse model; assay: In vivo tumor growth inhibition, intravenous administration; parameters: species or system Kunming mice; details: 20 mg/kg
Method: The lung cancer A549 transplanted mouse model was employed. DDO-6101 and antitumor drug 5-fluorouracil (5-FU) were also tested for comparison.
Kunming mice with body weights of 18–22 g were transplanted with lung cancer A549 cells according to protocols of transplant tumor research, as previously reported. Twenty-four hours after tumor transplantation, animals were weighed and randomly divided into five groups. All test drugs were given […] 24 h after tumor transplantation. The treated groups were intravenously injected or administered per os different doses of test compounds, respectively. The negative control group received 0.9% normal saline. Treatments were conducted at a frequency of one dose per two days for the intravenous group or one dose per day for the per os group for two or one week, respectively. All animals were sacrificed 24 h after the final treatment. All data are presented as mean ± SD and the statistical significance was evaluated by t-test.

[2] = Parallel artificial membrane permeability assay (PAMPA)
From the text: (§1) In parallel with the in vitro antitumor activity testing, the physicochemical properties of the target caged xanthone derivatives were theoretically predicted and experimentally determined in an effort to identify potential druglike compounds prior to the time-consuming and costly development and optimization of derivatives that may ultimately fail in efficacy experiments in vivo. The partition coefficient (logD) was experimentally determined on a Gemini Profiler instrument (pION, Inc., Woburn, MA, USA) by a potentiometric titration method. The polar surface area (PSA), as well as intestinal absorption level, were theoretically predicted by Accelrys Discovery Studio 4.0 (BIOVIA, San Diego, CA, USA) using the ADMET protocol. […] The permeability coefficient (Pe) was determined using a standard parallel artificial membrane permeability assay (PAMPA) on a PAMPA Explorer instrument (pION).
A HPLC system with an ultraviolet (UV) detector was used to detect the solubility of the compounds. The optimal wavelength was 290 nm. Ethanol/water (85:15) was an efficient eluent at a flow rate of 0.5 mL/min. The compounds were stirred in deionized water overnight to maximize the retention of the compounds in solution. Then, the solutions were filtered and the supernatant was used as a fluid sample for HPLC detection. The permeability (Pe) of the compounds was tested with the help of a standard PAMPA (pION). PAMPA was performed on a PAMPA Explorer instrument (pION) with the PAMPA Explorer command software (Version 3.7.4.1). The compounds were diluted to 10 mM with the system solution buffer (pH 7.4). Then, 150 μL of the diluted compound solution was transferred to a UV plate, and the UV spectrum was collected and used as a reference. Then, paint the membrane with 5 μL of gastrointestinal tract (GIT) lipid. The acceptor chamber was filled with 200 μL of acceptor solution buffer, and the donor chamber was filled with 200 μL of diluted compound solution. […] The UV spectra (240–500 nm) from the donor and the acceptor were collected. The permeability coefficient was calculated with the PAMPA Explorer Command software (Version 3.7.4.1) based on the area under the curve (AUC) of the reference plate, the donor plate, and the acceptor plate. The permeability coefficient of the compound was tested for four times, and the data are shown as the average values.

[3] = tested on: cisplatin-resistant A549 cell line (A549/cisplatin); assay: MTT antiproliferative assay, A549/cisplatin; type: cell-based; details: Homo sapiens, 72 h
Method: (§2) The antiproliferative activity of the ten synthesized caged xanthone derivatives, as well as the lead compound DDO-6101 and GA were assessed with the 3-(4,5-dimethylthiazol-2-yl)-2,5-diphenyltetrazolium bromide (MTT) assay, as previously reported, against six human cancer cell lines, including the human lung carcinoma A549 cell line, taxol-resistant A549 cell line (A549/taxol), cisplatin-resistant A549 cell line (A549/cisplatin), the human hepatocellular carcinoma HepG2 cell line, the human colon carcinoma HCT-116 cell line, and the human glioblastoma U251 cell line. DDO-6101 and GA were used as positive controls for the in vitro assay.
(§3) Cancer cell lines were obtained from Cell Bank of Shanghai, Chinese Academy of Sciences. Cells were cultured in 90% RPMI 1640 medium (GIBCO, Invitrogen Corporation, New York, NY, USA) supplemented with 10% fetal bovine serum (Sijiqing Biotechnology Co., Hangzhou, China), 100 U/mL benzyl penicillin, and 100 μg/mL streptomycin in a humidified environment with 5% CO2 at 37 °C. All the tested compounds were dissolved in DMSO at a concentration of 0.01 mol/L and stored at −4 °C.
(§4) The inhibition of tumour cell growth was measured by a modified tetrazolium (MTT) salt assay. Cells were cultured in a 96-well plate and treated with culture medium alone or different concentrations of the compounds. The cells were incubated for 72 h, and then the MTT assay reagent was added. After a 4 h incubation, the formazan product was quantitated at 570 nm. The IC50 values (the concentrations that gave rise to 50% inhibition of cell viability) were calculated using GraphPad Prism 6 using a variable slope (four parameters).

[4] = logD by potentiometric titration (Gemini Profiler); type: physicochemical; details: measured on Gemini Profiler instrument (pION); for logD: pH 7.4, read-out: Log D 7.4
[5] = Aqueous solubility by HPLC; details: thermodynamic from solid
From the text: as §1
A HPLC system with an ultraviolet (UV) detector was used to detect the solubility of the compounds. The optimal wavelength was 290 nm. Ethanol/water (85:15) was an efficient eluent at a flow rate of 0.5 mL/min. The compounds were stirred in deionized water overnight to maximize the retention of the compounds in solution. Then, the solutions were filtered and the supernatant was used as a fluid sample for HPLC detection. The permeability (Pe) of the compounds was tested with the help of a standard PAMPA (pION). PAMPA was performed on a PAMPA Explorer instrument (pION) with the PAMPA Explorer command software (Version 3.7.4.1). The compounds were diluted to 10 mM with the system solution buffer (pH 7.4). Then, 150 μL of the diluted compound solution was transferred to a UV plate, and the UV spectrum was collected and used as a reference. Then, paint the membrane with 5 μL of gastrointestinal tract (GIT) lipid. The acceptor chamber was filled with 200 μL of acceptor solution buffer, and the donor chamber was filled with 200 μL of diluted compound solution. The PAMPA sandwich was assembled and left at 25 °C for 4 h. The UV spectra (240–500 nm) from the donor and the acceptor were collected. The permeability coefficient was calculated with the PAMPA Explorer Command software (Version 3.7.4.1) based on the area under the curve (AUC) of the reference plate, the donor plate, and the acceptor plate. The permeability coefficient of the compound was tested for four times, and the data are shown as the average values.

U2OS cells = assay: MTT antiproliferative assay, U2OS; type: cell-based; details: Homo sapiens, 72 h
[6] = tested on: human hepatocellular carcinoma HepG2 cell line; assay: MTT antiproliferative assay, HepG2; type: cell-based; details: 72 h
Method: as §2, §3, §4

[7] = tested on: taxol-resistant A549 cell line (A549/taxol); assay: MTT antiproliferative assay, A549/taxol; type: cell-based; details: Homo sapiens
Method: as §2, §3, §4

[8] = tested on: human colon carcinoma HCT-116 cell line; assay: MTT antiproliferative assay, HCT116; type: cell-based; details: 72 h
Method: as §2, §3, §4

[9] = tested on: human lung carcinoma A549 cell line; assay: MTT antiproliferative assay, A549; type: cell-based; details: Homo sapiens, A549; MTT, 72 h
Method: as §2, §3, §4

[10] = A549/Taxol, MTT, 72 h, read-out: IC50 A549/Taxol

Row | Papp at 4 h, 10 mM ([2]; pH 5) [×10⁻⁶ cm/s] | Papp at 4 h, 10 mM ([2]; pH 6.2) [×10⁻⁶ cm/s] | Papp at 4 h, 10 mM ([2]; pH 7.4) [×10⁻⁶ cm/s] | IC50 [3] [nM] | logD [4] | solubility ([5]; deionized water) [µM] | IC50 (U2OS cells) [nM] | IC50 [6] [nM] | melting point [°C] | IC50 [7, 10] [nM] | IC50 [8] [nM] | IC50 [9] [nM] | SMILES | further results
1 | – | – | – | – | – | – | – | – | – | – | – | – | O=c1[nH]cc(F)c(=O)[nH]1 [Compound 5-FU, 5-fluorouracil, reference compound] | Body Weight Pre-Dose ([1]; pre-dose): 20.25 ± 1.27 g; Body Weight After-Dose ([1]; two weeks): 24.43 ± 2.62 g; Inhibitory Rate ([1]; two weeks): 64.71%; Weight of Tumor ([1]; two weeks): 0.48 ± 0.17 ^b g
2 | 27.9 ± 3.3 | 58.8 ± 2.1 | 91.4 ± 9.8 | 1480 ± 100 | 2.1 | 1120 (≈ 597 µg/mL) | 2220 ± 90 | 2120 ± 410 | 156 to 158 | 1220 ± 210 | 1640 ± 260 | 1950 ± 400 | CC(C)=CCC12OC(C)(C)C3CC(C=C4C(=O)c5c(OCc6cn(CCN(C)C)nn6)cccc5OC431)C2=O (stereo not drawn) [Compound 8a] | –
3 | 16.3 ± 1.2 | 41.7 ± 3.2 | 76.1 ± 6.4 | 1660 ± 110 | 1.8 | 1540 (≈ 842 µg/mL) | 2730 ± 50 | 1360 ± 160 | 133 to 136 | 1300 ± 80 | 2270 ± 50 | 2620 ± 200 | CC(C)=CCC12OC(C)(C)C3CC(C=C4C(=O)c5c(OCc6cn(CCCN(C)C)nn6)cccc5OC431)C2=O (stereo not drawn) [Compound 8b] | –
4 | 42.3 ± 1.5 | 75.4 ± 6.9 | 91.9 ± 6 | 1340 ± 90 | 2.2 | 1400 (≈ 782 µg/mL) | 2010 ± 200 | 1190 ± 310 | 168 to 170 | 1290 ± 70 | 980 ± 310 | 2580 ± 390 | CC(C)=CCC12OC(C)(C)C3CC(C=C4C(=O)c5c(OCc6cn(CCN7CCCC7)nn6)cccc5OC431)C2=O (stereo not drawn) [Compound 8c] | –
5 | 15.4 ± 2.1 | 52.8 ± 1.6 | 66.4 ± 8.4 | 890 ± 240 | 1.6 | 1920 (≈ 1100 µg/mL) | 3050 ± 70 | 4480 ± 290 | 144 to 146 | 1700 ± 120 | 1020 ± 30 | 2620 ± 40 | CC(C)=CCC12OC(C)(C)C3CC(C=C4C(=O)c5c(OCc6cn(CCCN7CCCC7)nn6)cccc5OC431)C2=O (stereo not drawn) [Compound 8d] | –
6 | 47.8 ± 4.7 | 57.2 ± 1.4 | 78.2 ± 8.8 | 1290 ± 480 | 2.9 | 560 (≈ 321 µg/mL) | 4660 ± 30 | 4850 ± 390 | 173 to 176 | 2030 ± 110 | 2140 ± 180 | 2170 ± 120 | CC(C)=CCC12OC(C)(C)C3CC(C=C4C(=O)c5c(OCc6cn(CCN7CCCCC7)nn6)cccc5OC431)C2=O (stereo not drawn) [Compound 8e] | Pe range ([2]; range under different pH from 5.0 to 7.4): 47.0–78.2 × 10^–6 cm/s
7 | 34.9 ± 3.6 | 55.1 ± 0.8 | 68.7 ± 5.3 | 1320 ± 120 | 2.7 | 880 (≈ 516 µg/mL) | 2070 ± 110 | 6300 ± 480 | 125 to 128 | 1290 ± 80 | 1390 ± 40 | 1070 ± 280 | CC(C)=CCC12OC(C)(C)C3CC(C=C4C(=O)c5c(OCc6cn(CCCN7CCCCC7)nn6)cccc5OC431)C2=O (stereo not drawn) [Compound 8f] | –
8 | 40 ± 0.1 | 58 ± 6.1 | 72.6 ± 0.1 | 360 ± 40 | 0.9 | 3700 (≈ 2180 µg/mL) | 730 ± 70 | 3070 ± 130 | 143 to 145 | 550 ± 80 | 950 ± 120 | 1030 ± 60 | CC(C)=CCC12OC(C)(C)C3CC(C=C4C(=O)c5c(OCc6cn(CCCN7CCOCC7)nn6)cccc5OC431)C2=O (stereo not drawn) [Compound 8h] | IC50 ([7]; range over both resistant A549 lines and both compounds, read-out: IC50 values, taxol-resistant and cisplatin-resistant A549 cell lines): 330 to 550 nM
9 | 11.3 ± 0.6 | 41.5 ± 1.3 | 67.5 ± 4.2 | 780 ± 80 | 1 | 3220 (≈ 1890 µg/mL) | 9510 ± 1520 | 5350 ± 230 | 171 to 175 | 2120 ± 90 | 6150 ± 860 | 3330 ± 490 | CC(C)=CCC12OC(C)(C)C3CC(C=C4C(=O)c5c(OCc6cn(CCN7CCN(C)CC7)nn6)cccc5OC431)C2=O (stereo not drawn) [Compound 8i] | –
10 | – | – | – | – | – | – | – | – | – | – | – | – | CC(C)NCC(O)COc1cccc2ccccc12 (stereo not drawn) [Propranolol, reference compound] | Pe pH=7.4 ([2]; pH 7.4): 127.5±15.8 10-6 cm/s; Pe pH=7.4 ([2]; pH 7.4, listed as propranolol): 127.5 10-6 cm/s

Row | SMILES | Papp at 4 h, 10 mM ([2]; pH 5) [×10⁻⁶ cm/s] | Papp at 4 h, 10 mM ([2]; pH 6.2) [×10⁻⁶ cm/s] | Papp at 4 h, 10 mM ([2]; pH 7.4) [×10⁻⁶ cm/s] | IC50 [3] [nM] | logD [4] | solubility ([5]; deionized water) [µM] | IC50 (U2OS cells) [nM] | IC50 [6] [nM] | melting point [°C] | IC50 [7, 10] [nM] | IC50 [8] [nM] | IC50 [9] [nM] | further results
11 | CC(C)=CCC[C@]1(C)C=Cc2c(O)c3c(c(CC=C(C)C)c2O1)O[C@]12C(=C[C@@H]4C[C@H]1C(C)(C)O[C@@]2(C/C=C(/C)C(=O)O)C4=O)C3=O [GA, Gambogic acid, reference compound] | – | – | – | 2500 ± 60 | – | – | 4670 ± 110 | – | – | 290 ± 40 | 340 ± 80 | – | Pe range ([2]; PAMPA, 4 h, 10 mM): 0.9–2.3 × 10^–6 cm/s; Papp at 4 h, 10 mM ([2]; PAMPA, pH 5): 0.9 ± 0.5 ×10⁻⁶ cm/s; Pe pH=6.2 ([2]; pH 6.2): 1.8±0.2 10-6 cm/s; Pe pH=7.4 ([2]; pH 7.4): 2.3±0.3 10-6 cm/s; Log D 7.4 [4]: 3.6; solubility ([5]; water): < 5 µM
